Values after ≈ are worked out from the molar mass of the structure shown. Where two headings read alike, the source gives them in different places.
How the values were obtained:
[1] = tested on: MRSA; assay: MIC by broth microdilution, MRSA isolates; format: cell-based; conditions: for MIC AG038 MRSA: clinical isolate AG038; for MIC AG039 MRSA AAC(6′)-I ANT(4′)-I: clinical isolate AG039, AAC(6′)-I ANT(4′)-I; for MIC AG042 MRSA AAC(6′)-I ANT(4′)-I APH(2′): clinical isolate AG042, AAC(6′)-I ANT(4′)-I APH(2′); for MIC AG044 MRSA: clinical isolate AG044
[2] = tested on: E coli wild type; assay: MIC by broth microdilution, wild type E coli; format: cell-based; conditions: for MIC AG001 E. coli WT: clinical isolate AG001, WT; for MIC AG055 E. coli WT: clinical isolate AG055, WT
[3] = tested on: P aeruginosa; assay: MIC by broth microdilution, P aeruginosa isolates; format: cell-based, Pseudomonas aeruginosa; conditions: for MIC AG031 P. aer. APH(3′)-II: clinical isolate AG031, APH(3′)-II; for MIC AG032 P. aer. APH(3′)-II: clinical isolate AG032, APH(3′)-II
[4] = tested on: E coli carrying specific resistance determinants; assay: MIC by broth microdilution, E coli carrying specific resistance determinants; format: cell-based; conditions: for MIC AG003 E. coli AAC(3)-II: clinical isolate AG003, AAC(3)-II
[5] = tested on: wild type bacterial ribosomes; assay: in-vitro translation assay, bacterial ribosomes; format: biochemical
Text: (§1) The antiribosomal activity of these compounds was investigated with cell-free translation assays using both wild type bacterial ribosomes and hybrid ribosomes carrying eukaryotic decoding A sites enabling the prediction of selectivity.

[6] = tested on: A1555G mutant mitochondrial ribosome (human chimeric); assay: in-vitro translation assay, human chimeric ribosomes, A1555G mutant mitochondrial decoding site; format: biochemical; conditions: human mitochondrial decoding site with A1555G point mutation; read-out: IC50 Mitoch. A1555G
Text: as §1

[7] = tested on: cytosolic ribosome (human chimeric); format: biochemical
Text: as §1

[8] = tested on: mitochondrial ribosome (human chimeric); format: biochemical
Text: as §1

[9] = tested on: rabbit reticulocyte ribosomes; assay: in-vitro translation assay, rabbit reticulocyte ribosomes; format: biochemical; conditions: mammalian cytosolic ribosomes (rabbit)
[10] = tested on: Klebsiella pneumonia AG215; assay: MIC by broth microdilution, Klebsiella pneumonia; format: cell-based; conditions: strain AG215 Klebsiella pneumonia
[11] = tested on: Acinetobacter baumannii pittii AG225; assay: MIC by broth microdilution, Acinetobacter baumannii; format: cell-based; conditions: strain AG225 Acinetobacter baumannii pittii
[12] = tested on: Enterobacter cloacae AG290; assay: MIC by broth microdilution, Enterobacter cloacae; format: cell-based; conditions: strain AG290 Enterobacter cloacae
[13] = tested on: M. smegmatis SZ380; assay: MIC by broth microdilution, M. smegmatis; conditions: strain SZ380 Mycobacterium smegmatis
[14] = Mycobacterium smegmatis ribosomes, read-out: IC50 Bacterial
[15] = ribosomes with a human cytosolic decoding site, read-out: IC50 Cytosolic
[16] = ribosomes with a human mitochondrial decoding site, read-out: IC50 Mitoch.

NC[C@H]1O[C@H](O[C@H]2[C@H](O[C@@H]3O[C@H](CNC=O)[C@@H](O)[C@H]3O)[C@@H](O)[C@H](N)C[C@@H]2N)[C@H](N)[C@@H](O)[C@@H]1O [DC130]
MIC AG038 MRSA [1]: 64 µg/mL (≈ 133 µM)
MIC AG039 MRSA AAC(6′)-I ANT(4′)-I [1]: >128 µg/mL
MIC AG042 MRSA AAC(6′)-I ANT(4′)-I APH(2′) [1]: >128 µg/mL
MIC AG044 MRSA [1]: 128 µg/mL (≈ 266 µM)
MIC AG001 E. coli WT [2]: 32 µg/mL (≈ 66.5 µM)
MIC AG055 E. coli WT [2]: 32 µg/mL (≈ 66.5 µM)
MIC AG031 P. aer. APH(3′)-II [3]: >128 µg/mL
MIC AG032 P. aer. APH(3′)-II [3]: >128 µg/mL
MIC AG003 E. coli AAC(3)-II [4]: 32 µg/mL (≈ 66.5 µM)
IC50 [5, 14]: 0.24 µM
IC50 [6]: 190 µM
IC50 [7, 15]: 359 µM
IC50 [8, 16]: 364 µM
IC50 [9]: 152 µM

CC1CC(N)C2OC(OC3C(N)CC(N)C(O)C3OC3OC(CO)C(OC4OC(CN)C(O)C(O)C4N)C3O)C(N)C(O)C2O1 (centres unmarked) [DC150]
MIC AG038 MRSA [1]: 128 µg/mL (≈ 196 µM)
MIC AG039 MRSA AAC(6′)-I ANT(4′)-I [1]: 128 µg/mL (≈ 196 µM)
MIC AG042 MRSA AAC(6′)-I ANT(4′)-I APH(2′) [1]: 128 µg/mL (≈ 196 µM)
MIC AG044 MRSA [1]: 128 µg/mL (≈ 196 µM)
MIC pH430 WT ([2]; E. coli strain pH430, WT): 64-128 μg/ml
MIC AG001 E. coli WT [2]: >128 µg/mL
MIC AG055 E. coli WT [2]: >128 µg/mL
MIC AG031 P. aer. APH(3′)-II [3]: >128 µg/mL
MIC AG032 P. aer. APH(3′)-II [3]: >128 µg/mL
MIC AG003 E. coli AAC(3)-II [4]: >128 µg/mL
IC50 [5, 14]: 0.48 µM
IC50 [6]: 2.3 µM
Target specificity bacterial vs. Cytosolic ([7]; relative target specificity, bacterial vs. human cytosolic): low
IC50 [7, 15]: 12 µM
Target specificity bacterial vs. Mitochondrial ([8]; relative target specificity, bacterial vs. human mitochondrial): low
IC50 [8, 16]: 4.1 µM
IC50 [9]: 13 µM

NC[C@@H]1O[C@H](O[C@H]2[C@@H](O)[C@H](O[C@@H]3[C@@H](O)[C@H](N)C[C@H](N)[C@H]3O[C@H]3O[C@H](CO)[C@@H](O)C[C@H]3N)O[C@@H]2CO)[C@H](N)[C@@H](O)[C@@H]1O [Lividomycin B, lividomycin B, reference compound]
MIC AG038 MRSA [1]: 4 µg/mL (≈ 6.67 µM)
MIC AG039 MRSA AAC(6′)-I ANT(4′)-I [1]: >128 µg/mL
MIC AG042 MRSA AAC(6′)-I ANT(4′)-I APH(2′) [1]: >128 µg/mL
MIC AG044 MRSA [1]: 4 to 8 µg/mL
MIC50 MRSA AG38 ([1]; strain AG38, Table 1 (Example 1)): 4 µg/mL (≈ 6.67 µM)
MIC50 MRSA AG39 ([1]; strain AG39, Table 1 (Example 1)): >128 µg/mL
MIC50 MRSA AG42 ([1]; strain AG42, Table 1 (Example 1)): >128 µg/mL
MIC50 MRSA AG44 ([1]; strain AG44, Table 1 (Example 1)): 4 to 8 µg/mL
MIC E coli AG006 wt ([2]; AG006 wt, Table 2 (Example 1)): 1 to 2 µg/mL
MIC E coli AG102 wt ([2]; AG102 wt, Table 2 (Example 1)): 2 µg/mL (≈ 3.34 µM)
MIC E coli AG160 wt ([2]; AG160 wt, Table 2 (Example 1)): 4 µg/mL (≈ 6.67 µM)
MIC WT ([2]; WT, Table 3 (Example 1)): 2 µg/mL (≈ 3.34 µM)
MIC AG001 E. coli WT [2]: 4 µg/mL (≈ 6.67 µM)
MIC AG055 E. coli WT [2]: 2 µg/mL (≈ 3.34 µM)
MIC AG160 E. coli WT ([2]; clinical isolate AG160 WT, Table 2 (Example 4)): 4 µg/mL (≈ 6.67 µM)
MIC pH430 E. coli WT ([2]; engineered strain pH430 WT, Table 2 (Example 4)): 2 μg/ml
MIC50 E coli AG01 ([2]; strain AG01, Table 1 (Example 1)): 16 µg/mL (≈ 26.7 µM)
MIC50 E coli AG03 ([2]; strain AG03, Table 1 (Example 1)): 8 to 16 µg/mL
MIC50 E coli AG55 ([2]; strain AG55, Table 1 (Example 1)): 16 µg/mL (≈ 26.7 µM)
MIC AG212 E. coli ([2]; strain AG212 E. coli (ATCC25922)): 4 µg/mL (≈ 6.67 µM)
MIC AG031 P. aer. APH(3′)-II [3]: 16 µg/mL (≈ 26.7 µM)
MIC AG032 P. aer. APH(3′)-II [3]: >128 µg/mL
MIC50 P aeruginosa AG31 ([3]; strain AG31, Table 1 (Example 1)): 16 µg/mL (≈ 26.7 µM)
MIC50 P aeruginosa AG32 ([3]; strain AG32, Table 1 (Example 1)): >128 µg/mL
MIC50 P aeruginosa AG33 ([3]; strain AG33, Table 1 (Example 1)): 128 µg/mL (≈ 213 µM)
MIC50 P aeruginosa AG86 ([3]; strain AG86, Table 1 (Example 1)): 128 µg/mL (≈ 213 µM)
MIC AG220 P. aerugin ([3]; strain AG220 Pseudomonas aeruginosa ATCC27853): 4 µg/mL (≈ 6.67 µM)
MIC E coli AG007 ANT(3″) AAC(3)-I ([4]; AG007 ANT(3″) AAC(3)-I, Table 2 (Example 1)): 4 µg/mL (≈ 6.67 µM)
MIC E coli AG103 ArmA ([4]; AG103 ArmA, Table 2 (Example 1)): 16 µg/mL (≈ 26.7 µM)
MIC E coli AG163/164 APH(3′)-Ia ([4]; AG163/164 APH(3′)-Ia, Table 2 (Example 1)): >128 µg/mL
MIC E coli AG166 APH(3′)-IIa ([4]; AG166 APH(3′)-IIa, Table 2 (Example 1)): 4 to 8 µg/mL
MIC APH(3)-VI ([4]; APH(3)-VI, Table 3 (Example 1)): 2 µg/mL (≈ 3.34 µM)
MIC APH(3′)-I ([4]; APH(3′)-I, Table 3 (Example 1)): >64 µg/mL
MIC APH(3′)-II ([4]; APH(3′)-II, Table 3 (Example 1)): 2 µg/mL (≈ 3.34 µM)
MIC APH(3′)-III ([4]; APH(3′)-III, Table 3 (Example 1)): >64 µg/mL
MIC AG003 E. coli AAC(3)-II [4]: 4 µg/mL (≈ 6.67 µM)
MIC AG163 E. coli APH(3′)-I ([4]; clinical isolate AG163 APH(3′)-I, Table 2 (Example 4)): >128 µg/mL
MIC AG166 E. coli APH(3′)-II ([4]; clinical isolate AG166 APH(3′)-II, Table 2 (Example 4)): 4 to 8 µg/mL
MIC AG037 E. coli APH(3′)-III ([4]; engineered strain AG037 APH(3′)-III, Table 2 (Example 4)): >128 µg/mL
MIC pH421 E. coli APH(3′)-I ([4]; engineered strain pH421 APH(3′)-I, Table 2 (Example 4)): >64 μg/ml
MIC pH422 E. coli APH(3′)-II ([4]; engineered strain pH422 APH(3′)-II, Table 2 (Example 4)): 2 μg/ml
MIC pH423 E. coli APH(3′)-VI ([4]; engineered strain pH423 APH(3′)-VI, Table 2 (Example 4)): 2 μg/ml
IC50 [5, 14]: 0.04 µM
IC50 ([5]; bacterial ribosome, Table 3 (Example 1), read-out: IC50 Bac): 0.04 µM
IC50 ([7]; cytosolic, Table 3 (Example 1), read-out: IC50 Cyt): 53 µM
IC50 [7, 15]: 53 µM
IC50 ([8]; mitochondrial, Table 3 (Example 1), read-out: IC50 Mit): 109 µM
IC50 [8, 16]: 109 µM
IC50 [9]: 25 µM
MIC AG215 K. pneumon [10]: 2 µg/mL (≈ 3.34 µM)
MIC AG225 A. baumannii [11]: 4 µg/mL (≈ 6.67 µM)
MIC AG290 E. cloacae [12]: 2 µg/mL (≈ 3.34 µM)
MIC SZ380 M. smegmatis [13]: 0.5 µg/mL (≈ 0.834 µM)

NC[C@H]1O[C@H](O[C@H]2[C@H](O[C@@H]3O[C@H](CN)[C@@H](O)[C@H]3O)[C@@H](O)[C@H](N)C[C@@H]2N)[C@H](N)[C@@H](O)[C@@H]1O [DC048]
MIC AG038 MRSA [1]: 8 µg/mL (≈ 17.6 µM)
MIC AG039 MRSA AAC(6′)-I ANT(4′)-I [1]: >64 µg/mL
MIC AG042 MRSA AAC(6′)-I ANT(4′)-I APH(2′) [1]: >128 µg/mL
MIC AG044 MRSA [1]: 8 to 16 µg/mL
MIC AG001 E. coli WT [2]: 32 to 64 µg/mL
MIC AG055 E. coli WT [2]: 32 µg/mL (≈ 70.6 µM)
MIC AG003 E. coli AAC(3)-II [4]: 16 µg/mL (≈ 35.3 µM)
IC50 [5, 14]: 0.09 µM
IC50 [6]: 34 µM
IC50 [8, 16]: 76 µM
IC50 [9]: 50 µM
